Among the data in patent publication US12252524B2, “GIP/GLP1 co-agonist compounds” (Eli Lilly and Company, priority 2018, dated 2025) are Ki and EC50 values, retold here.

The structures appear in SMILES notation. Numbered stars: 1 amine (or outer) side, 2 acyl side, 3 side chain; on linkers, the order of the positions; unused ones are H or OH. Square brackets hold non-standard residues; d marks the D form. Side chains are listed from the residue outwards. Peptide text beside a SMILES is read from it. * marks the point of attachment. Ala(1H-tetrazol-5-yl) = N[C@@H](Cc1nnn[nH]1)C(=O)O; C20 diacid = O=C(O)CCCCCCCCCCCCCCCCCCC(=O)*; γGlu = O=C(O)[C@H](CCC(=O)[*:2])N[*:1]; αMeF = C[C@](N)(Cc1ccccc1)C(=O)O; αMeL = CC(C)C[C@](C)(N)C(=O)O; AEEA = NCCOCCOCC(=O)O; Aib = CC(C)(N)C(=O)O

One test addresses T1, human GIP receptor (Homo sapiens, UniProt P48546).
T1 construct: expressed in transfected cells; crude membranes
T1 sequence (P48546 22-466): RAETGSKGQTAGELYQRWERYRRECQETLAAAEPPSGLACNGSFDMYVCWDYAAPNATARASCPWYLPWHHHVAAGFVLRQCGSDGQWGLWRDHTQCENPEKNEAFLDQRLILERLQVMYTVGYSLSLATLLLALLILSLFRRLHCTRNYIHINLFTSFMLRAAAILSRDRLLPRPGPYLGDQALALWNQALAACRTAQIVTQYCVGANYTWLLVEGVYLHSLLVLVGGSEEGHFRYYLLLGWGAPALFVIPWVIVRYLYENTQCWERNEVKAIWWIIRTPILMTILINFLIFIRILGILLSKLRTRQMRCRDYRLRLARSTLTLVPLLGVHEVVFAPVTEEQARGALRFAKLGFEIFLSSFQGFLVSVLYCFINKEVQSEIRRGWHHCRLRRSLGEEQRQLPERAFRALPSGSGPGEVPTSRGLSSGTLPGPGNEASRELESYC
Briefly: [125I]-GIP binding (SPA), human GIP receptor. Particulars: read-out: hGIPR Ki, nM (SEM, n).

The target in test [1] is T2, gastric inhibitory peptide receptor (GIPR) (Homo sapiens, UniProt P48546).
T2 sequence (P48546 22-466): T1 sequence (P48546 22-466)
Briefly: cAMP pharmacological functional assay in presence of casein, hGIPR. To be noted: HEK293 cells expressing hGIPR, 0.1% Casein, geometric mean; read-out: hGIPR cAMP Rel EC50 nM (SEM, n). In kind it is cell-based.

The next test deals with T3, human Gcg receptor (Homo sapiens, UniProt P47871).
T3 construct: expressed in transfected cells; crude membranes
T3 sequence (P47871 26-477): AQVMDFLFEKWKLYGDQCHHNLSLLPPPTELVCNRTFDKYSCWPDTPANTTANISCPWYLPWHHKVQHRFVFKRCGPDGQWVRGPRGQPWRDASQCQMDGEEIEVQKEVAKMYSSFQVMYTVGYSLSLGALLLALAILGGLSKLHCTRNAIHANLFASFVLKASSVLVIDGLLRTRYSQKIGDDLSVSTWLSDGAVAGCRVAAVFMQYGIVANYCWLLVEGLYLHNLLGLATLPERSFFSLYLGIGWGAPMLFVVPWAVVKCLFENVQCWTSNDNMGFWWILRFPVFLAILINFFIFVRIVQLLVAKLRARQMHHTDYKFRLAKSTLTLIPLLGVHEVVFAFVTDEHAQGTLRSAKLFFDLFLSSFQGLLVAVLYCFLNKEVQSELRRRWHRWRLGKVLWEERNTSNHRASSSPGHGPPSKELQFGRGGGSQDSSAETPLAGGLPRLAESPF
Briefly: [125I]-Glucagon binding (SPA), human Gcg receptor. To be noted: read-out: hGLcgR Ki, nM (SEM, n). Summed up: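 Scintillation counts are taken after membranes and WGA beads incubate and settle for 12 hours at room temperature. Buffer is 25 mM HEPES, pH 7.4, with CaCl2, MgCl2, bacitracin and Tween-20. Ki values, from four-parameter IC50 fits, are geometric means over independent days.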

Another test concerns the target human GLP-1R (Homo sapiens, UniProt P43220). Briefly: [125I]-GLP-1 binding (SPA), human GLP-1 receptor. Particulars: read-out: hGLP1R Ki, (nM) (SEM, n). Also on record: expressed in transfected cells; crude membranes. Summed up: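 Membranes: hypotonic lysis (50 mM Tris HCl, pH 7.5, protease inhibitors), Potter-Elvehjem homogenization, high-speed pellet (35000×g 1 h or 25000×g 30 min, 4° C.). Buffer: 25 mM HEPES pH 7.4, 2.5 mM CaCl2, 1 mM MgCl2. Four-parameter IC50 fit; Ki as geometric mean ± SEM.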

In test [2] the target is human GLP-1 receptor (GLP-1R) (Homo sapiens, UniProt P43220). Briefly: cAMP pharmacological functional assay in presence of casein, hGLP-1R. The format is cell-based. To be noted: HEK293 cells expressing hGLP-1R, 0.1% Casein, geometric mean; read-out: hGLP1R cAMP Rel EC50 nM (SEM, n).
human GLP-1 receptor (GLP-1R), sequence (P43220 24-463): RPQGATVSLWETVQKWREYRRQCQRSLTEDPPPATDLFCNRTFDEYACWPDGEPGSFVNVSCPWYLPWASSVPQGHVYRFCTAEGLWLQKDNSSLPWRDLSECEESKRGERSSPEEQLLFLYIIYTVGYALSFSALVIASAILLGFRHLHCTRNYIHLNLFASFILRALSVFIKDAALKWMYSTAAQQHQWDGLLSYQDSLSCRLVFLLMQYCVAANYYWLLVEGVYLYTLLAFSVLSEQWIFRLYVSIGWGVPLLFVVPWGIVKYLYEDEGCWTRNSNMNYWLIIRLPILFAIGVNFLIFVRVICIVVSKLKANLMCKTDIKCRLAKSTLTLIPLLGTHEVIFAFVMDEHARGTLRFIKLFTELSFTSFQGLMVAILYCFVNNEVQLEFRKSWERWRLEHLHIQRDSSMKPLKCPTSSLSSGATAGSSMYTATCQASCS

human GLP-1R, sequence (P43220 24-463): as above

Usually Ki stands for a measure of affinity in units of concentration, obtained from inhibition or displacement. As a reminder, the EC50 is the midpoint of the concentration-response curve. For `CC[C@H](C)[C@H](NC(=O)[C@H](CC(C)C)NC(=O)[C@H](Cc1ccc(O)cc1)NC(=O)[C@H](CCC(=O)O)NC(=O)[C@@H](NC(=O)[C@H](Cc1ccccc1)NC(=O)[C@H](C)NC(=O)C(C)(C)NC(=O)[C@H](CCC(N)=O)NC(=O)[C@H](C)NC(=O)[C@H](CCCCNC(=O)COCCOCCNC(=O)COCCOCCNC(=O)CC[C@H](NC(=O)CCCCCCCCCCCCCCCCCCC(=O)O)C(=O)O)NC(=O)[C@H](CCC(=O)O)NC(=O)[C@H](CC(=O)O)NC(=O)[C@H](CC(C)C)NC(=O)[C@](C)(CC(C)C)NC(=O)[C@@H](NC(=O)[C@H](CO)NC(=O)[C@H](Cc1ccc(O)cc1)NC(=O)[C@H](CC(=O)O)NC(=O)[C@H](CO)NC(=O)[C@@H](NC(=O)[C@](C)(Cc1ccccc1)NC(=O)[C@@H](NC(=O)CNC(=O)[C@H](CCC(=O)O)NC(=O)C(C)(C)NC(=O)[C@@H](N)Cc1ccccc1)[C@@H](C)O)[C@@H](C)O)[C@@H](C)CC)[C@@H](C)CC)C(=O)N[C@@H](CCC(=O)O)C(=O)NCC(=O)NCC(=O)N1CCC[C@H]1C(=O)N[C@@H](CO)C(=O)N[C@@H](CO)C(=O)NCC(=O)N[C@@H](C)C(=O)N1CCC[C@H]1C(=O)N1CCC[C@H]1C(=O)N1CCC[C@H]1C(=O)N[C@@H](CO)C(N)=O` [Example 119] (H-F[Aib]EGT[αMeF]TSDYSI[αMeL]LDEK([AEEA-AEEA-γGlu-C20 diacid])AQ[Aib]AFIEYLIEGGPSSGAPPPS-NH2), the inhibitory constant (Ki) worked out at 0.0925 nM on human GIP receptor, 30.6 nM at human Gcg receptor and 9.87 nM at human GLP-1R. Besides, the results for the EC50 in test [1] and in test [2] were 0.216 nM and 0.0913 nM, respectively.
For `CC[C@H](C)[C@H](NC(=O)[C@H](CC(C)C)NC(=O)[C@H](Cc1ccc(O)cc1)NC(=O)[C@H](CCC(=O)O)NC(=O)[C@@H](NC(=O)[C@H](Cc1ccccc1)NC(=O)[C@H](C)NC(=O)C(C)(C)NC(=O)[C@H](CCC(N)=O)NC(=O)[C@H](C)NC(=O)[C@H](CCCCNC(=O)COCCOCCNC(=O)COCCOCCNC(=O)CC[C@H](NC(=O)CCCCCCCCCCCCCCCCCCC(=O)O)C(=O)O)NC(=O)[C@H](CCC(=O)O)NC(=O)[C@H](CC(=O)O)NC(=O)[C@H](CC(C)C)NC(=O)[C@](C)(CC(C)C)NC(=O)[C@@H](NC(=O)[C@H](CO)NC(=O)[C@H](Cc1ccc(O)cc1)NC(=O)[C@H](CC(=O)O)NC(=O)[C@H](CO)NC(=O)[C@@H](NC(=O)[C@](C)(Cc1ccccc1)NC(=O)[C@@H](NC(=O)CNC(=O)[C@H](Cc1nn[nH]n1)NC(=O)C(C)(C)NC(=O)[C@@H](N)Cc1ccc(O)cc1)[C@@H](C)O)[C@@H](C)O)[C@@H](C)CC)[C@@H](C)CC)C(=O)N[C@@H](CCC(=O)O)C(=O)NCC(=O)NCC(=O)N1CCC[C@H]1C(=O)N[C@@H](CO)C(=O)N[C@@H](CO)C(=O)NCC(=O)N[C@@H](C)C(=O)N1CCC[C@H]1C(=O)N1CCC[C@H]1C(=O)N1CCC[C@H]1C(=O)N[C@@H](CO)C(N)=O` [Example 120] (H-Y[Aib][Ala(1H-tetrazol-5-yl)]GT[αMeF]TSDYSI[αMeL]LDEK([AEEA-AEEA-γGlu-C20 diacid])AQ[Aib]AFIEYLIEGGPSSGAPPPS-NH2; N-terminus assumed), in that order: 0.11 nM, 93.6 nM, 11.7 nM, 0.122 nM and 0.201 nM.
On the same counts, the results for `CC[C@H](C)[C@H](NC(=O)[C@H](CC(C)C)NC(=O)[C@H](Cc1ccc(O)cc1)NC(=O)[C@H](CCC(=O)O)NC(=O)[C@@H](NC(=O)[C@H](Cc1ccccc1)NC(=O)[C@H](C)NC(=O)[C@H](CCC(N)=O)NC(=O)[C@H](CCC(N)=O)NC(=O)[C@H](C)NC(=O)[C@H](CCCCNC(=O)COCCOCCNC(=O)COCCOCCNC(=O)CC[C@H](NC(=O)CCCCCCCCCCCCCCCCCCC(=O)O)C(=O)O)NC(=O)[C@H](CCC(=O)O)NC(=O)[C@H](CC(=O)O)NC(=O)[C@H](CC(C)C)NC(=O)[C@](C)(CC(C)C)NC(=O)[C@@H](NC(=O)[C@H](CO)NC(=O)[C@H](Cc1ccc(O)cc1)NC(=O)[C@H](CC(=O)O)NC(=O)[C@H](CO)NC(=O)[C@@H](NC(=O)[C@](C)(Cc1ccccc1)NC(=O)[C@@H](NC(=O)CNC(=O)[C@H](CCC(=O)O)NC(=O)C(C)(C)NC(=O)[C@@H](N)Cc1ccc(O)cc1)[C@@H](C)O)[C@@H](C)O)[C@@H](C)CC)[C@@H](C)CC)C(=O)N[C@@H](CCC(=O)O)C(=O)NCC(=O)NCC(=O)N1CCC[C@H]1C(=O)N[C@@H](CO)C(=O)N[C@@H](CO)C(=O)NCC(=O)N[C@@H](C)C(=O)N1CCC[C@H]1C(=O)N1CCC[C@H]1C(=O)N1CCC[C@H]1C(=O)N[C@@H](CO)C(N)=O` [Example 121] (H-Y[Aib]EGT[αMeF]TSDYSI[αMeL]LDEK([AEEA-AEEA-γGlu-C20 diacid])AQQAFIEYLIEGGPSSGAPPPS-NH2) are 0.177 nM, 51.9 nM, 3.16 nM, 0.076 nM and 0.0849 nM.
For `CC[C@H](C)[C@H](NC(=O)[C@H](Cc1ccccc1)NC(=O)[C@H](C)NC(=O)[C@H](CCC(N)=O)NC(=O)[C@H](CCC(N)=O)NC(=O)[C@H](C)NC(=O)[C@H](CCCCNC(=O)COCCOCCNC(=O)COCCOCCNC(=O)CC[C@H](NC(=O)CCCCCCCCCCCCCCCCCCC(=O)O)C(=O)O)NC(=O)[C@H](CCC(=O)O)NC(=O)[C@H](CC(=O)O)NC(=O)[C@H](CC(C)C)NC(=O)[C@](C)(CC(C)C)NC(=O)[C@@H](NC(=O)[C@H](CO)NC(=O)[C@H](Cc1ccc(O)cc1)NC(=O)[C@H](CC(=O)O)NC(=O)[C@H](CO)NC(=O)[C@@H](NC(=O)[C@](C)(Cc1ccccc1)NC(=O)[C@@H](NC(=O)CNC(=O)[C@H](CCC(=O)O)NC(=O)C(C)(C)NC(=O)[C@@H](N)Cc1ccc(O)cc1)[C@@H](C)O)[C@@H](C)O)[C@@H](C)CC)C(=O)N[C@@H](CCC(=O)O)C(=O)N[C@@H](Cc1ccc(O)cc1)C(=O)N[C@@H](CC(C)C)C(=O)N[C@H](C(=O)N[C@@H](CCC(=O)O)C(=O)NC(C)(C)C(=O)NCC(=O)N1CCC[C@H]1C(=O)N[C@@H](CO)C(=O)N[C@@H](CO)C(=O)NCC(=O)N[C@@H](C)C(=O)N1CCC[C@H]1C(=O)N1CCC[C@H]1C(=O)N1CCC[C@H]1C(=O)N[C@@H](CO)C(N)=O)[C@@H](C)CC` [Example 122] (H-Y[Aib]EGT[αMeF]TSDYSI[αMeL]LDEK([AEEA-AEEA-γGlu-C20 diacid])AQQAFIEYLIE[Aib]GPSSGAPPPS-NH2), in that order: 0.19 nM, 43.3 nM, 3.36 nM, 0.0923 nM and 0.076 nM.
As to `CC[C@H](C)[C@H](NC(=O)[C@H](CC(C)C)NC(=O)[C@H](Cc1ccc(O)cc1)NC(=O)[C@H](CCC(=O)O)NC(=O)[C@@H](NC(=O)[C@H](Cc1ccccc1)NC(=O)[C@H](CCC(=O)O)NC(=O)C(C)(C)NC(=O)[C@H](CCC(N)=O)NC(=O)[C@H](C)NC(=O)[C@H](CCCCNC(=O)COCCOCCNC(=O)COCCOCCNC(=O)CC[C@H](NC(=O)CCCCCCCCCCCCCCCCCCC(=O)O)C(=O)O)NC(=O)[C@H](CCC(=O)O)NC(=O)[C@H](CC(=O)O)NC(=O)[C@H](CC(C)C)NC(=O)[C@](C)(CC(C)C)NC(=O)[C@@H](NC(=O)[C@H](CO)NC(=O)[C@H](Cc1ccc(O)cc1)NC(=O)[C@H](CC(=O)O)NC(=O)[C@H](CO)NC(=O)[C@@H](NC(=O)[C@](C)(Cc1ccccc1)NC(=O)[C@@H](NC(=O)CNC(=O)[C@H](CCC(=O)O)NC(=O)C(C)(C)NC(=O)[C@@H](N)Cc1ccc(O)cc1)[C@@H](C)O)[C@@H](C)O)[C@@H](C)CC)[C@@H](C)CC)C(=O)N[C@@H](CCC(=O)O)C(=O)NCC(=O)NCC(=O)N1CCC[C@H]1C(=O)N[C@@H](CO)C(=O)N[C@@H](CO)C(=O)NCC(N)=O` [Example 124] (H-Y[Aib]EGT[αMeF]TSDYSI[αMeL]LDEK([AEEA-AEEA-γGlu-C20 diacid])AQ[Aib]EFIEYLIEGGPSSG-NH2), the inhibition constant Ki at human GIP receptor was 0.0424 nM; on human Gcg receptor it was 41.5 nM; on human GLP-1R, 4.87 nM. The half-maximal effective concentration (EC50) in test [1] was 0.0762 nM; in test [2], 0.0475 nM.
